Measurements: patent US10308689B2, “Dengue virus (DV) polypeptide sequences, T cell epitopes and methods and uses thereof” (LA JOLLA INSTITUTE FOR ALLERGY AND IMMUNOLOGY, priority 2010, dated 2019)
Ends that are not written are not given here.

Test system: PBMC of healthy adult blood donors from Colombo, Sri Lanka
Assay: Ex vivo IFNγ ELISPOT, HLA-matched PBMC of Sri Lankan blood donors
Type: cell-based, human
Set-up: Total Response per epitope: unit not given here
Conditions: for # donors responded: number of donors responding to the epitope; for T cell response [SFC]: ex vivo IFNγ SFC/10^6 PBMC; for # of responders: responding donors, HLA allele(s)
[1] = restricting HLA allele and serotype as given
[2] = total over responding donors, restricting HLA allele and serotype as given
[3] = IFNγ ELISPOT response summed over responding donors, per epitope
[4] = HLA-matched PBMC, proteome-wide screen

Compound | # donors responded [1] | Total Response per epitope [2] | Total Response per epitope [3] | # donors responded [4] | other results
CC(C)C[C@H](NC(=O)[C@H](CC(C)C)NC(=O)[C@@H](NC(=O)[C@H](C)NC(=O)[C@H](C)N)C(C)C)C(=O)N[C@@H](CC(C)C)C(=O)N[C@H](C(=O)N[C@H](C(=O)N[C@@H](Cc1c[nH]cn1)C(=O)N[C@@H](Cc1ccc(O)cc1)C(=O)O)[C@@H](C)O)C(C)C | 2 | 393.3 | – | – | –
CC(C)C[C@H](NC(=O)[C@@H](NC(=O)[C@H](C)NC(=O)[C@H](CCC(=O)O)NC(=O)CNC(=O)[C@H](CCC(N)=O)NC(=O)[C@@H](NC(=O)[C@@H]1CCCN1C(=O)[C@@H](N)CS)[C@@H](C)O)[C@@H](C)O)C(=O)O | 1 | 295.0 | – | – | –
CC(C)C[C@H](NC(=O)[C@@H](NC(=O)[C@H](C)NC(=O)[C@H](CCC(=O)O)NC(=O)CNC(=O)[C@H](CCC(N)=O)NC(=O)[C@@H](NC(=O)[C@@H]1CCCN1C(=O)[C@@H](N)CS)[C@@H](C)O)C(C)C)C(=O)O | 2 | 385.0 | – | – | –
CC[C@H](C)[C@H](NC(=O)[C@@H]1CCCN1C(=O)[C@@H](N)CC(=O)O)C(=O)N1CCC[C@H]1C(=O)N[C@@H](Cc1ccc(O)cc1)C(=O)N[C@@H](CC(=O)O)C(=O)N1CCC[C@H]1C(=O)N[C@@H](CCCCN)C(=O)N[C@@H](Cc1ccccc1)C(=O)O | 1 | 38.3 | – | – | –
CC(C)[C@H](NC(=O)[C@H](C)NC(=O)[C@@H](N)CCC(=O)O)C(=O)N[C@@H](CCC(=O)O)C(=O)N[C@@H](CC(=O)O)C(=O)N[C@@H](CO)C(=O)N[C@@H](CCCNC(=N)N)C(=O)N[C@@H](Cc1ccccc1)C(=O)N[C@@H](Cc1c[nH]c2ccccc12)C(=O)N[C@@H](CCC(=O)O)C(=O)O | 1 | 248.3 | – | – | –
CC(C)C[C@H](NC(=O)[C@H](CCC(N)=O)NC(=O)CNC(=O)[C@@H]1CCCN1C(=O)[C@@H](N)CCC(=O)O)C(=O)N[C@@H](CCCCN)C(=O)N[C@@H](CC(C)C)C(=O)N[C@@H](CC(N)=O)C(=O)N[C@@H](Cc1c[nH]c2ccccc12)C(=O)N[C@@H](Cc1ccccc1)C(=O)O | 5 | 581.7 | – | – | –
CSCC[C@H](NC(=O)[C@H](CC(C)C)NC(=O)[C@H](CCCCN)NC(=O)[C@H](CCCCN)NC(=O)[C@@H](NC(=O)CNC(=O)[C@H](CCC(=O)O)NC(=O)[C@H](CCCCN)NC(=O)[C@@H]1CCCN1C(=O)[C@@H](N)CCC(=O)O)[C@@H](C)O)C(=O)O | 3 | 928.3 | – | – | –
CC[C@H](C)[C@H](NC(=O)[C@H](CC(C)C)NC(=O)[C@H](CS)NC(=O)[C@H](CC(C)C)NC(=O)[C@H](CC(C)C)NC(=O)[C@@H](N)[C@@H](C)O)C(=O)N1CCC[C@H]1C(=O)N[C@H](C(=O)N[C@H](C(=O)O)C(C)C)[C@@H](C)O | – | 53.3 | – | – | –
CC[C@H](C)[C@H](NC(=O)[C@H](CCCCN)NC(=O)[C@H](CO)NC(=O)[C@H](CO)NC(=O)CN)C(=O)N[C@@H](CCCNC(=N)N)C(=O)N[C@@H](Cc1c[nH]c2ccccc12)C(=O)N[C@H](C(=O)N[C@H](C(=O)N[C@@H](CCC(=O)O)C(=O)O)C(C)C)[C@@H](C)CC [GSSKIRWIVE] | 2 | 111.7 | – | – | –
CSCC[C@H](NC(=O)[C@H](CC(C)C)NC(=O)[C@@H](NC(=O)[C@H](CCC(=O)O)NC(=O)[C@@H](N)CC(C)C)[C@@H](C)O)C(=O)N[C@@H](CC(C)C)C(=O)N[C@H](C(=O)N[C@@H](C)C(=O)N[C@@H](CC(C)C)C(=O)O)C(C)C [LETLMLVAL] | – | – | 103.3 | 1 | –
CSCC[C@H](N)C(=O)N[C@H](C(=O)N[C@@H](CCC(N)=O)C(=O)N[C@@H](CCCCN)C(=O)N[C@@H](C)C(=O)N[C@@H](CCCNC(=N)N)C(=O)N[C@@H](CC(N)=O)C(=O)N[C@@H](C)C(=O)N[C@@H](CC(C)C)C(=O)O)[C@@H](C)O [MTQKARNAL] | – | – | 268.3 | 2 | –
CSCC[C@H](NC(=O)[C@H](C)NC(=O)CNC(=O)[C@H](CCC(=O)O)NC(=O)[C@@H](N)CCC(N)=O)C(=O)N[C@@H](Cc1c[nH]cn1)C(=O)N[C@@H](CO)C(=O)N[C@@H](C)C(=O)N[C@@H](CC(C)C)C(=O)O [QEGAMHSAL] | – | – | 48.3 | 1 | –
CSCC[C@H](NC(=O)[C@H](C)NC(=O)CNC(=O)[C@H](CCC(=O)O)NC(=O)[C@@H](N)CCC(N)=O)C(=O)N[C@@H](Cc1c[nH]cn1)C(=O)N[C@H](C(=O)N[C@@H](C)C(=O)N[C@@H](CC(C)C)C(=O)O)[C@@H](C)O [QEGAMHTAL] | – | – | 40.0 | 1 | –
ATGPVLTLW | 2 | 390.0 | – | – | T cell response [SFC] (per epitope): 390 SFC; # of responders: 2
CLIPTAMAF | 1 | 66.7 | – | – | T cell response [SFC] (per epitope): 67 SFC; # of responders: 1
DPRRCLKPV | 2 | 556.7 | – | – | –
DTTPFGOOR | – | – | – | – | T cell response [SFC] (per epitope): 3260 SFC; # of responders: 8
EERDIPERSW | 1 | 133.3 | – | – | –
EPISYDPKF | 1 | 340.0 | – | – | –
FAGPVSQHNY | 3 | 428.3 | – | – | –
FLMVLLIPEP | 1 | 28.3 | – | – | –
FTILALFLAH | 8 | 1715.0 | – | – | T cell response [SFC] (per epitope): 1715 SFC; # of responders: 8
GAMLFLISGK | 1 | 23.3 | – | – | –
GEFRLRGEQR | 3 | 1373.3 | – | – | T cell response [SFC] (per epitope): 1373 SFC; # of responders: 3
GFFLRKLTSR | 1 | 81.7 | – | – | –
GPLVAGGLL | 3 | 748.3 | – | – | –
HPGAGKTKRY | 10 | 3046.7 | – | – | T cell response [SFC] (per epitope): 3047 SFC; # of responders: 10

Compound | # donors responded [1] | Total Response per epitope [2] | Total Response per epitope [3] | # donors responded [4] | other results
IANOATVLM | – | – | – | – | T cell response [SFC] (per epitope): 1518 SFC; # of responders: 7
IANQAAILM | 1 | 58.3 | – | – | –
IETTILDVDL | – | – | 1413.3 | 2 | –
IGIGVLLTW | 1 | 378.3 | – | – | –
KEGVFHTMW | 1 | 178.3 | – | – | –
KQISNELNY | 1 | 26.7 | – | – | –
KSGAIKVLK | 1 | 48.3 | – | – | –
KVLNPYMPSV | – | – | 63.3 | 1 | –
LATGPVLTLW | 1 | 745.0 | – | – | T cell response [SFC] (per epitope): 745 SFC; # of responders: 1
LMMILPAAL | – | – | 46.7 | 1 | –
LPVWLAHKVA | – | – | 23.3 | 1 | T cell response [SFC] (per epitope): 23 SFC; # of responders: 1
MPVTVASAAQ | – | – | 51.7 | 1 | –
MVSRLLLNR | – | – | 28.3 | 1 | –
NPNMIDKTPV | – | – | 376.7 | 2 | –
NPWMEDKTPV | – | – | 191.7 | 2 | –
RASFIEVKTC | – | – | 290.0 | 2 | –
REDLWCGSL | – | – | 96.7 | 1 | –
REIPERSWNT | – | – | 1278.3 | 2 | –
REWCFTGERN | – | – | 1345.0 | 2 | –
RFLEFEALGF | – | – | 181.7 | 1 | –
RPGYHTQTA | – | – | 501.7 | 2 | –
SEMAEALKGM | – | – | 30.0 | 1 | –
SPKRLATAIA | – | – | 68.3 | 1 | –
TLMAAILAY | 1 | 43.3 | – | – | –
TLMAMDLGEL | – | – | 823.3 | 1 | –
TPFGIIPAL | – | – | – | – | # of responders: 1
TTKRDLGMSK | – | – | – | – | # donors responded (HLA allele, supertype and serotype): 1; Total Response per epitope (summed IFNγ ELISPOT response per epitope, HLA allele and serotype as given): 35.0
